From PMC10476265, “Optimized LC-MS/MS Method for the Detection of ppCCK(21–44): A Surrogate to Monitor Human Cholecystokinin Secretion” (Journal of Proteome Research, 2023)
Where no end group is shown, it is not given here.

How the values were obtained:
[1] = system: CCK1 receptor (CCK1R); details: statement of the introduction; cited from earlier work
Text: Post-translational processing of preproCCK (ppCCK), including tyrosine-sulfation in the trans-Golgi network and subsequent proteolytic cleavage by prohormone convertases and carboxypeptidase E combined with C-terminal amidation by peptidylglycine α-amidating monooxygenase[5],[6] produces a number of different bioactive CCK peptides (Figure 1). For activation of the CCK1 receptor (CCK1R), which largely mediates the peripheral outcomes described above, sulfation of the CCK peptide is critical, and the bioactive products of ppCCK, named after the number of amino acids retained in the final produc ...

[2] = system: cholecystokinin (CCK8) (26–33), non-sulfated enzyme immunoassay kit; details: reported for the kit; ref EK-069-04, Phoenix Peptide; cited from earlier work
Text: (§1) A cholecystokinin (CCK8) (26–33), non-sulfated enzyme immunoassay kit (EK-069-04, Phoenix Peptide, Germany), with 100% reported cross-reactivity with sulfated and non-sulfated CCK8 as well as CCK33 and gastrin, was used for assay validation. The pooled human plasma potassium EDTA anticoagulant (K2EDTA, BioIVT, West Sussex, U.K.) from healthy controls was used as a matrix for the preparation of calibration standards during the clinical sample analysis.

[3] = system: human duodenal organoid cultures; test: Human duodenal organoid secretion assay: CCK8 and ppCCK(21–44) in supernatants and lysates by LC-MS/MS; assay type: cell-based; details: 10 μM forskolin + 1 mM glucose vs 1 mM glucose alone, 1 h, 2D human intestinal organoids; similar for both peptides; n = 12 from six experiments in duplicate
Description: Human duodenal organoid cultures were established for secretion assays using our established protocol.[16] To improve peptide yield, the cultures were grown in a 6-well plate format, and 400 μL of secretion buffer (0.001% fatty acid-free BSA and 1 mM glucose in saline buffer[16]) was used in the experiments.
Method development, validation, and calibration/quantitation samples were prepared by spiking working solutions of CCK8, CCK33, and ppCCK(21–44) in organoid secretion buffer. For initial CCK detection, lysed organoid cultures were prepared using 6 M guanidine hydrochloride (aq) and snap-frozen prior to extraction.
Based on the experimental design results, the extraction of CCK peptides from organoid lysate and secretion samples was adjusted from previous methods,[16],[17] as per the following steps. […]
To assess CCK secretion, we cultured human intestinal organoids in 2D cultures[16] and collected supernatants and cell lysates after 1 h incubation in either 1 mM glucose or 1 mM glucose and 10 μM forskolin, a known strong stimulus for secretion of a number of gut hormones, including CCK.[17],[18] We were unable to reliably detect sulfated CCK8 in supernatants; however, desulfated CCK8 and ppCCK(21–44) were detected under both culture conditions. […]

[4] = system: cholecystokinin (CCK8) (26–33), non-sulfated enzyme immunoassay kit; test: Commercial CCK8 enzyme immunoassay (EK-069-04, Phoenix Peptide): detection and cross-reactivity; assay type: binding; details: 50 to 750 pg/mL spiked in secretion buffer, SPE eluate dried and reconstituted in EIA buffer
Text: as §1
We compared the performance of the LC-MS/MS method with a commercially available EIA (EK-069-04, Phoenix Peptide). CCK8 solutions were spiked at different concentrations either alone or in the presence of ppCCK(21–44) into secretion buffer, duplicate samples were extracted as described, and prior to EIA analysis, the SPE eluates were dried under nitrogen and reconstituted in EIA buffer. The concentrations were deduced alongside either extracted calibration curves for LC-MS/MS analysis or non-extracted standard curves as supplied in the EIA kit.

Molecule | cross-reactivity of the EIA kit [2] [%] | other results
gastrin: closely related peptide hormone sharing the bioactive C-terminus with CCK8 | 100 | activity at CCK1R [1]: no activity
C=C[C@@]1(C)CC(=O)[C@]2(O)[C@@]3(C)[C@@H](O)CCC(C)(C)[C@@H]3[C@H](O)[C@H](OC(C)=O)[C@@]2(C)O1 [forskolin] | – | fold stimulation of CCK8 and ppCCK(21–44) secretion [3]: ~2.3 fold
CCK33: 33 amino acid bioactive CCK isoform (KAPSGRMSIVKNLQNLDPSHRISDRDYMGWMDF-NH2; ends and bridges not checked; UniProt P06307 71-103, looked up) | 100 | –
non-sulfated CCK8: CCK8 without tyrosine sulfate, cross-reactant of the EIA kit | 100 | –
[Pyr]-QPVPPADPAGSGLQRAEEAPRRQL-acid [ppCCK(21–44), N-terminal peptide fragment of proCCK, surrogate analyte for CCK secretion] | – | detection by EIA [4]: did not detect
